Literature values in US20200397798A1, “COMBINATION THERAPIES WITH FARNESOID X RECEPTOR (FXR) MODULATORS” (Akarna Therapeutics, Ltd., priority 2016, published 2020).
“Also recorded” adds a separate entry of the source.

Experiments:
KK-A(y) mice = conditions: mouse, in vivo
[1] = test system: plasma triglyceride levels; conditions: human, in vivo
[2] = test system: DSS- and TNBS-induced intestinal inflammation; conditions: wild type, but not Fxr−/− mice
[3] = test system: CGD-susceptible C57L mice; conditions: lithogenic diet supplemented with GW4064, 1 week
mice = conditions: in vivo
ob/ob and db/db mice = conditions: mouse, in vivo
[4] = test system: patients with biopsy-proven NASH; conditions: OCA arm, 25 mg orally daily
[5] = test system: C57BL/6 mice fed an MCD diet

C[C@H](CCC(=O)O)[C@H]1CC[C@H]2[C@@H]3[C@H](O)C[C@@H]4C[C@H](O)CC[C@]4(C)[C@H]3C[C@H](O)[C@]12C [CA]
hepatic TG accumulation and VLDL secretion (KK-A(y) mice): prevented

C[C@H](CCC(=O)O)[C@H]1CC[C@H]2[C@@H]3[C@H](O)C[C@@H]4C[C@H](O)CC[C@]4(C)[C@H]3CC[C@]12C [CDCA, chenodeoxycholic acid]
plasma triglyceride levels [1]: decreased circulating TG levels; also recorded: reduces plasma triglyceride levels

CC[C@H]1[C@@H](O)[C@@H]2[C@H](CC[C@]3(C)[C@@H]([C@H](C)CCC(=O)O)CC[C@@H]23)[C@@]2(C)CC[C@@H](O)C[C@@H]12 [Compound 6-ECDCA]
expression of proinflammatory cytokines, chemokines and their receptors [2]: repressed

CC(C)c1onc(-c2c(Cl)cccc2Cl)c1COc1ccc(/C=C/c2cccc(C(=O)O)c2)c(Cl)c1 [GW4064]
CGD onset [3]: prevented CGD onset
ovalbumin-induced diarrhea and cholera toxin-induced intestinal fluid accumulation (mice): reduced
Cl− secretory responses to Ca2+ and cAMP-dependent agonists (T84 cells): attenuated
nuclear translocation of the receptor (FXR) (T84 cells): induced nuclear translocation
liver steatosis (ob/ob and db/db mice): able to prevent liver steatosis

CC[C@H]1[C@@H](O)[C@@H]2[C@H](CC[C@]3(C)[C@@H]([C@H](C)CCC(=O)O)CC[C@@H]23)[C@@]2(C)CC[C@@H](O)C[C@@H]12 [OCA, obeticholic acid]
change in HDL, total cholesterol and LDL compared to placebo [4]: decrease in the high-density lipoprotein (HDL) and an increase in the total cholesterol and low-density lipoprotein (LDL)

CC(C)OC(=O)C1=CN(C(=O)c2ccc(F)c(F)c2)CC(C)(C)c2c1[nH]c1ccccc21 [WAY-362450]
elevations of serum ALT and AST induced by the MCD diet ([5]; 4 weeks treatment): markedly reduced
hepatoprotective effects in FXR−/− mice ([5]; FXR−/− mice fed an MCD diet): abolished
